Test results reported in US8614064B2, “Methods of diagnosing atherosclerosis by measuring ApoCI” (The Johns Hopkins University, priority 2003, dated 2013).

What was measured:
[1] = tested on: human aortic smooth muscles cells (ASMC); assay: Fluorescence microscope quantitative assay of apoptotic death (DAPI staining); type: cell-based; conditions: for apoptotic cells by white staining of the nucleus with DAPI (FIG. 1A): 2.5 μg/mL medium; for percent of apoptotic cells (DAPI, FIG. 1B): ApoCI and ApoCIII 2.5 μg/mL medium, ApoCI-enriched HDL 1 μg apoA-I/mL, ApoCI-poor HDL 5 μg apoA-I/mL, control 2.24%
Description: FIGS. 1A-1C depict the effect of apolipoproteins on apoptosis in human aortic smooth muscles cells (ASMC). ASMC were grown on sterilized glass cover slips and incubated for 24 hours with media alone (control), ApoCIII (negative control, 2.5 μg/mL medium), ApoCI (2.5 μg/mL medium), ApoCI-enriched HDL (1 μg apoA-I/mL medium), or ApoCI-poor HDL (5 μg apoA-I/mL medium) for 24 hours. Cells were then fixed with ethanol-acetic acid (3:1 volume/volume) and washed 3 times with phosphate-buffered saline. The cells were then stained with DAPI reagent, mounted on a glass cover slide, and subjected to fluorescence microscopy. FIG. 1A: The nucleus of normal cells stains blue and the nucleus of apoptotic cells stains is fragmented white. FIG. 1B: 300 to 500 cells in each sample were counted and the percent of apoptotic cells was plotted. Values are mean±SD; **P<0.01, ***P<0.001. FIG. 1C: DNA ladder assay. Confluent cultures of ASMC were incubated with control medium alone, ApoCI (2.5 μg/mL medium), ApoCIII (negative control, 2.5 μg/mL medium), and TNF-α (positive control, 20 ng/mL medium). Genomic DNA was extracted and 10 μg DNA was subjected to agarose gel electrophoresis. The gels were calibrated with commercially available DNA standards. After electrophoresis, the gels were stained with ethidium bromide and then photographed.
FIGS. 2A-2B depict the effect of ApoCI, the N-SMase inhibitor, GW4869, and C-2 ceramide on apoptosis in cultured human ASMC. FIG. 2A: ASMC (1×10^3) were seeded on sterilized glass cover slips and grown in tissue culture medium with 10% fetal calf serum for 48 hours. […] Thirty minutes later, vehicle DMSO, ApoCI (2.5 μg/mL), or C2-ceramide (10 μmol/L) were added to dishes, and the incubation continued for 24 hours. The cells were then fixed with ethanol-acetic acid (3:1 v/v), stained with DAPI reagent, assessed by fluorescent microscopy, and photographed. Top to bottom: control cells; cells incubated with ApoCI± the N-SMase inhibitor, GW4869; and cells incubated with ApoCI GW4869, and C2-ceramide. FIG. 2B: The DAPI-stained ASMC from the four experimental conditions described was analyzed for quantitative apoptosis. Mean (SD) from 4 experiments. *P<0.05.
Human AoSMC that were negative for mycoplasma, hepatitis B and C and HIV-1 were purchased from Clonetics (San Diego, Calif.) and cultured in Dulbecco's minimal essential medium (Invitrogen, Carlsbad, Calif.) with 10% fetal bovine serum (Hyclone, Salt Lake City, Utah), 100-units/ml penicillin, 100-μg/ml streptomycin to confluence. The cells were incubated in serum-free medium for 30 min prior to initiating the experiments. Cells were then washed and harvested in PBS, and centrifuged at 1500 rpm for 5 min at 4° C. Protease inhibitors were then added and the pellets stored frozen at −30° C. until use.
1×10^3 cells were grown on sterilized glass cover slips in 6-well trays and treated with ApoCI (2.5 μg/ml medium), ApoCIII (2.5 μg/ml medium), tumor necrosis factor (TNF)-α (30 ng/ml), ApoCI-enriched HDL (1 μg apoA-I/ml medium) and ApoCI-poor HDL (5 μg apoA-I/ml medium). After 24 h incubation, the medium was removed, cells fixed with ethanol:acetic acid […] and stored at 4° C. Next, the fixing solution was removed and cells stored frozen at −30° C. Cover slips were mounted on the microscope slides and stained with DAPI reagent (4,6-diamino-2-phenylindol, dihydrochloride). The stained nuclei were visualized by fluorescence microscopy (Zeiss Axiovert 25). Apoptotic cells were determined after counting—500 cells in a double blind fashion.

[2] = tested on: cytochrome c; assay: Immunofluorescence of cytochrome c in human cultured aortic smooth muscle cells; type: cell-based; conditions: 24 h
Description: FIGS. 5A-5C depict the effect of ApoCI, ApoCIII, ApoCI-enriched HDL, and GW4869 on cytochrome c release in ASMC. After treatment of confluent cells for 24 hours with ApoCI (2.5 μg/mL medium), ApoCIII (2.5 μg/mL medium), or ApoCI-enriched HDL (1 μg apoA-I/mL medium), the cells were lysed. The cell lysate was used as the source of cytochrome c, and the pellet was used as a source of caspase-3. The cell lysates were separated by SDS-polyacrylamide gel electrophoresis, blotted onto nitrocellulose, and cytochrome c detected using a polyclonal antibody against cytochrome c (FIG. 5A, top panel). The gels were then subjected to densitometric scanning (FIG. 5B, middle panel). In a separate experiment (FIG. 5C, right), confluent cells were grown on cover slips and pretreated with serum-free medium for 30 minutes. The cells were then incubated with control medium, ApoCI (2.5 μg/mL medium), TNF-α (20 ng/mL), or ApoCI (2.5 μg/mL)+GW4869 (20 μmol/L) for 24 hours. The cells were then washed, treated with a primary anti-cytochrome c antibody, washed with phosphate-buffered saline, and treated with a fluorescein isothiocyanate-conjugated anti-rabbit IgG (FIG. 5C, lower panel).
AOSMC (5×10^3) were grown on cover slips to confluence and pretreated with serum free medium for 30 min as described above. […]

Compound | effect of GW4869 on ApoCI-induced apoptosis, lower dose ([1]; GW4869 10 μmol/L) | effect of GW4869 on ApoCI-induced apoptosis ([1]; GW4869 20 μmol/L, 30 min before ApoCI 2.5 μg/mL, 24 h) | effect of GW4869 on ApoCI-induced cytochrome c release (immunofluorescence) ([2]; ApoCI 2.5 μg/mL + GW4869 20 μmol/L) | apoptotic cells by white staining of the nucleus with DAPI (FIG. 1A) ([1]; 24 h) | percent of apoptotic cells (DAPI, FIG. 1B) ([1]; 24 h) | ApoCI-induced apoptosis, percent apoptotic cells (FIG. 2B) ([1]; ApoCI 2.5 μg/mL, 24 h, control ~2%) | release of cytochrome c from mitochondria into the cytoplasm (immunofluorescence) ([2]; ApoCI 2.5 μg/mL)
O=C(/C=C/c1ccc(/C=C/C(=O)Nc2ccc(C3=NCCN3)cc2)cc1)Nc1ccc(C2=NCCN2)cc1 [GW4869] | also observed | completely abrogated | inhibited |  |  |  | 
ApoCIII: purified human ApoCIII purchased from Academy Bio-Medical Company, used as negative control |  |  |  | only a few apoptotic cells | 4.78% |  | 
Apolipoprotein C-I (TPDVSSALDKLKEFGNTLEDKARELISRIKQSELSAKMREWFSETFQKVKEKLKIDS; UniProt P02654 27-83, looked up) [ApoCI, 6.6-kDa single-chain plasma protein of 57 amino acids; purified human ApoCI purchased from Academy Bio-Medical Company] |  |  |  | many apoptotic cells | 26.19% | ~12% | marked increase
